US20080280879A1, “SUBSTITUTED HETEROCYCLIC DERIVATIVES AND THEIR PHARMACEUTICAL USE AND COMPOSITIONS” (priority 2007, published 2008)
Converted amounts (≈) assume the structure as drawn.

Legend:
Type in all cases: cell-based, Staphylococcus aureus
Staph aureus 1095 MRSA = assay: MIC, microtiter broth dilution (CLSI M7-A7), Assay 1, Table 12 column A, no serum; settings: Assay 1, no serum; for MIC: Staphylococcus aureus, MRSA
Method: (§1) The assays described herein include a panel of bacterial isolates of Staphylococcus aureus. Assay 1 comprises the strains noted in Columns A through E, and Assay 2 comprises the strains noted in Columns F through H. The assays are performed in microtiter trays according to Methods for Dilution Antimicrobial Susceptibility Tests for Bacteria that Grow Aerobically; Approved Standard-7th edition (M7-A7) and interpreted according to the Performance Standards for Antimicrobial Susceptibility Testing; 16th Informational Supplement (M100-S16) published by Clinical Laboratory Standards Institute (CLSI). The antibacterial activity is presented in the form of a minimum inhibitory concentration (MIC) value in μg/ml format. The MIC value represents the lowest concentration of drug measured which prevented macroscopically visible growth under the conditions and specific doses tested. The compounds were initially dissolved in DMSO as 30 mM stocks and diluted accordingly to adjust to a concentration of 10 mg/ml or the compounds were dissolved in DMSO at a concentration of 10 mg/ml. For assessment of activity in the presence of human serum, S. aureus 1146 and S. aureus 1031 were inoculated into Mueller-Hinton Broth with 50% pooled inactivated human serum. In some cases, compounds were tested more than once in a particular assay. Where noted, the MIC value shown in Table 12 represents the geometric mean of the data from multiple runs.
(§2) It should be understood that the data in columns A-H represents MIC data in μg/ml and the notation “<=” means ‘less than or equal to’.

Staph aureus 1146 [1] = assay: MIC, microtiter broth dilution (CLSI M7-A7), Assay 1, Table 12 column B, no serum; settings: for MIC, column B: Staph aureus 1146, Assay 1, no serum; for MIC: Staphylococcus aureus, 1146, Staph aureus 1146, Assay 1, no serum
Method: as §1, §2

Staph aureus 1146 [2] = assay: MIC in Mueller-Hinton Broth with 50% pooled inactivated human serum, Assay 1, Table 12; settings: for MIC, column C: Staph aureus 1146, Assay 1, 50% human serum; for MIC: Staphylococcus aureus, 1146, Staph aureus 1146, Assay 1, 50% human serum, read-out: MIC, column C
Method: as §1, §2

Staph aureus 2811 = assay: MIC, microtiter broth dilution (CLSI M7-A7), Assay 1, Table 12 column D, no serum; settings: for MIC, column D: Staph aureus 2811, Assay 1, no serum; for MIC: Staphylococcus aureus, 2811, Staph aureus 2811, Assay 1, no serum
Method: as §1, §2

Staph aureus 2812 = assay: MIC, microtiter broth dilution (CLSI M7-A7), Assay 1, Table 12 column E, no serum; settings: for MIC, column E: Staph aureus 2812, Assay 1, no serum; for MIC: Staphylococcus aureus, 2812, Staph aureus 2812, Assay 1, no serum
Method: as §1, §2

Compound | MIC, column A (Staph aureus 1095 MRSA) | MIC, column B (Staph aureus 1146 [1]) | MIC, column C (Staph aureus 1146 [2]) | MIC, column D (Staph aureus 2811) | MIC, column E (Staph aureus 2812) | MIC (Staph aureus 1095 MRSA) | MIC (Staph aureus 1146 [1]) | MIC (Staph aureus 1146 [2]) | MIC (Staph aureus 2811) | MIC (Staph aureus 2812)
COc1ccc2ncc(F)c(C(O)CC[C@@H]3CCN(C4CC(c5cc(F)ccc5F)C4)C[C@@H]3C(=O)O)c2c1 (stereo partly drawn) [Example 39, (3R,4R)-1-[3-(2,5-difluorophenyl)cyclobutyl]-4-[3-(3-fluoro-6-methoxyquinolin-4-yl)-3-hydroxypropyl]piperidine-3-carboxylic acid] |  |  |  |  |  | ≤ 0.125 µg/mL | ≤ 0.0625 µg/mL | 1 µg/mL (≈ 1.89 µM) | 0.25 µg/mL (≈ 0.473 µM) | ≤ 0.0625 µg/mL
COc1ccc2nccc([C@@H](O)CC[C@@H]3CCN(C4CC(c5cc(F)c(F)cc5F)C4)C[C@@H]3C(=O)O)c2c1 (stereo partly drawn) [Example 191, (3R,4R)-4-[(3S)-3-hydroxy-3-(6-methoxyquinolin-4-yl)propyl]-1-[3-(2,4,5-trifluorophenyl)cyclobutyl] piperidine-3-carboxylic acid] |  |  |  |  |  | 0.125 µg/mL (≈ 0.236 µM) | < 0.0625 µg/mL | 1 µg/mL (≈ 1.89 µM) | < 0.0625 µg/mL | < 0.0625 µg/mL
COc1ccc2ncc(F)c(C(O)CC[C@@H]3CCN(C4CC(c5ccccc5)C4)C[C@@H]3C(=O)O)c2c1 (single isomer, unassigned) [Example 16] | 0.125 µg/mL (≈ 0.254 µM) | <=.0884 μg/ml | 1 µg/mL (≈ 2.03 µM) | 0.125 µg/mL (≈ 0.254 µM) | 0.125 µg/mL (≈ 0.254 µM) |  |  |  |  | 
COc1ccc2nccc([C@@H](O)CC[C@@H]3CCN(C4CC(c5cccc(C(F)(F)F)c5F)C4)C[C@@H]3C(=O)O)c2c1 (stereo partly drawn) [Example 193, (3R,4R)-1-{3-[2-fluoro-3-(trifluoromethyl)phenyl]cyclobutyl}-4-[(3S)-3-hydroxy-3-(6-methoxyquinolin-4-yl)propyl]piperidine-3-carboxylic acid] |  |  |  |  |  | 0.5 µg/mL (≈ 0.892 µM) | 0.125 µg/mL (≈ 0.223 µM) | 64 µg/mL (≈ 114 µM) | 0.125 µg/mL (≈ 0.223 µM) | 0.125 µg/mL (≈ 0.223 µM)
COc1ccc2nccc(C(O)CC[C@@H]3CCN(C4CC(C5CCCCC5)C4)C[C@@H]3C(=O)O)c2c1 (stereo partly drawn) [Example 44, (3R,4R)-1-(3-cyclohexylcyclobutyl)-4-[3-hydroxy-3-(6-methoxyquinolin-4-yl)propyl]piperidine-3-carboxylic acid] |  |  |  |  |  | 0.5 µg/mL (≈ 1.04 µM) | 0.25 µg/mL (≈ 0.52 µM) | 2 µg/mL (≈ 4.16 µM) | 0.125 µg/mL (≈ 0.26 µM) | 0.125 µg/mL (≈ 0.26 µM)
COc1ccc2nccc(C(O)CC[C@@H]3CCN(C4CC(c5ccccc5)C4)CC3(C)C(=O)O)c2c1 (stereo partly drawn) [Example 13, (4R)-4-[3-hydroxy-3-(6-methoxyquinolin-4-yl)propyl]-3-methyl-1-(3-phenylcyclobutyl) piperidine-3-carboxylic acid] | 4 µg/mL (≈ 8.19 µM) | 4 µg/mL (≈ 8.19 µM) | 32 µg/mL (≈ 65.5 µM) | 2 µg/mL (≈ 4.09 µM) | 2 µg/mL (≈ 4.09 µM) |  |  |  |  | 
COc1ccc2ncc(Cl)c(CCNC3CCN(C4CC(c5ccccc5)C4)C(C(=O)O)C3)c2c1 (centres unmarked) [Example 101, (2,4)-4-{[2-(3-chloro-6-methoxyquinolin-4-yl)ethyl]amino}-1-(3-phenylcyclobutyl)piperidine-2-carboxylic acid] | 0.125 µg/mL (≈ 0.253 µM) | 0.125 µg/mL (≈ 0.253 µM) | 2 µg/mL (≈ 4.05 µM) | <=.0625 μg/ml | <=.0625 μg/ml |  |  |  |  | 
COc1ccc2nccc(C(O)CC[C@@H]3CCN(C4CC(c5nc(C)no5)C4)C[C@@H]3C(=O)O)c2c1 (stereo partly drawn) [Example 102, (3R,4R)-4-[3-hydroxy-3-(6-methoxyquinolin-4-yl)propyl]-1-[3-(3-methyl-1,2,4-oxadiazol-5-yl)cyclobutyl]piperidine-3-carboxylic acid] |  |  |  |  |  | 16 µg/mL (≈ 33.3 µM) | 16 µg/mL (≈ 33.3 µM) | 64 µg/mL (≈ 133 µM) | 8 µg/mL (≈ 16.6 µM) | 16 µg/mL (≈ 33.3 µM)
COc1ccc2ncc(F)c(C(O)CC[C@@H]3CCN(C4CC(c5cc(F)ccc5F)C4)C[C@@H]3C(=O)O)c2c1 (single isomer, unassigned) [Example 59] |  |  | <=.0625 μg/ml |  |  | ≤ 0.0625 µg/mL | ≤ 0.0625 µg/mL |  | ≤ 0.0625 µg/mL | ≤ 0.0625 µg/mL
COc1ccc2ccnc(CCCC3(C(=O)O)CCN(C4CC(c5ccccc5)C4)CC3)c2c1 (centres unmarked) [Example 121, 4-[3-(7-methoxyisoquinolin-1-yl)propyl]-1-(3-phenylcyclobutyl)piperidine-4-carboxylic acid] |  |  |  |  |  | 2 µg/mL (≈ 4.36 µM) | 1 µg/mL (≈ 2.18 µM) | > 64 µg/mL | 1 µg/mL (≈ 2.18 µM) | 1 µg/mL (≈ 2.18 µM)
COc1ccc2nccc(C(O)CC[C@@H]3CCN(C4CC(c5ccccc5)C4)CC3(C)C(=O)O)c2c1 (stereo partly drawn) [Example 12, (4R)-4-[3-hydroxy-3-(6-methoxyquinolin-4-yl)propyl]-3-methyl-1-(3-phenylcyclobutyl) piperidine-3-carboxylic acid] |  |  | 8 µg/mL (≈ 16.4 µM) |  |  | 4 µg/mL (≈ 8.19 µM) | 2 µg/mL (≈ 4.09 µM) |  | 2 µg/mL (≈ 4.09 µM) | 2 µg/mL (≈ 4.09 µM)

Other lines, results leading:

MIC, column A (Staph aureus 1095 MRSA) | MIC, column B (Staph aureus 1146 [1]) | MIC, column C (Staph aureus 1146 [2]) | MIC, column D (Staph aureus 2811) | MIC, column E (Staph aureus 2812) | MIC (Staph aureus 1095 MRSA) | MIC (Staph aureus 1146 [1]) | MIC (Staph aureus 1146 [2]) | MIC (Staph aureus 2811) | MIC (Staph aureus 2812) | Compound
<0.0625 µg/mL | <0.0625 µg/mL | 2.00 µg/mL (≈ 3.67 µM) | <0.0625 µg/mL | <0.0625 µg/mL |  |  |  |  |  | COc1ccc2ncc(Cl)c(C(O)CC[C@@H]3CCN(C4CC(c5c(F)cccc5F)C4)C[C@@H]3C(=O)O)c2c1 (stereo partly drawn) [Example 214, (3R,4R)-4-[3-(3-chloro-6-methoxyquinolin-4-yl)-3-hydroxypropyl]-1-[3-(2,6-difluorophenyl)cyclobutyl]piperidine-3-carboxylic acid]
 |  |  |  |  | > 64 µg/mL | > 64 µg/mL | > 64 µg/mL | > 64 µg/mL | > 64 µg/mL | COCc1noc(C2CC(N3CC[C@@H](CCC(O)c4ccnc5ccc(OC)cc45)[C@@H](C(=O)O)C3)C2)n1 (stereo partly drawn) [Example 169, (3R,4R)-4-[3-hydroxy-3-(6-methoxyquinolin-4-yl)propyl]-1-{3-[3-(methoxymethyl)-1,2,4-oxadiazol-5-yl]cyclobutyl}piperidine-3-carboxylic acid]
 |  |  |  |  | 16 µg/mL (≈ 31.9 µM) | 16 µg/mL (≈ 31.9 µM) | 64 µg/mL (≈ 128 µM) | 16 µg/mL (≈ 31.9 µM) | 16 µg/mL (≈ 31.9 µM) | COc1ccc2nccc(C(CC[C@@H]3CCN(C4CC(c5ccccc5)C4)C[C@@H]3C(=O)O)N(C)C)c2c1 (stereo partly drawn) [Example 140, (3R,4R)-4-[3-(dimethylamino)-3-(6-methoxyquinolin-4-yl)propyl]-1-(3-phenylcyclobutyl)piperidine-3-carboxylic acid]
 |  |  |  |  | 16 µg/mL (≈ 31 µM) | 2 µg/mL (≈ 3.88 µM) | 8 µg/mL (≈ 15.5 µM) | 2 µg/mL (≈ 3.88 µM) | 4 µg/mL (≈ 7.76 µM) | O=C(O)[C@H]1CN(C2CC(c3c(F)cccc3F)C2)CC[C@H]1CCC(O)c1c(F)cnc2ccc(O)nc12 (stereo partly drawn) [Example 201, (3R,4R)-1-[3-(2,6-difluorophenyl)cyclobutyl]-4-[3-(3-fluoro-6-hydroxy-1,5-naphthyridin-4-yl)-3-hydroxypropyl]piperidine-3-carboxylic acid]
 |  |  |  |  | > 64 µg/mL | > 64 µg/mL | > 64 µg/mL | > 64 µg/mL | > 64 µg/mL | COc1ccc2nccc(C(O)CC[C@@H]3CCN(C4CN(C5CCOC5)C4)C[C@@H]3C(=O)O)c2c1 (stereo partly drawn) [Example 129, (3R,4R)-4-[3-hydroxy-3-(6-methoxyquinolin-4-yl)propyl]-1-[1-(tetrahydrofuran-3-yl)azetidin-3-yl] piperidine-3-carboxylic acid]
 |  |  |  |  | 1 µg/mL (≈ 1.84 µM) | 0.25 µg/mL (≈ 0.46 µM) | > 33 µg/mL | 0.5 µg/mL (≈ 0.919 µM) | 0.25 µg/mL (≈ 0.46 µM) | COc1ccc2ncc(Cl)c(CCNC3(C(=O)O)CCCN(CC4CC4c4cc(F)ccc4F)CC3)c2c1 (centres unmarked) [Example 156, 4-{[2-(3-chloro-6-methoxyquinolin-4-yl)ethyl]amino}-1-{[2-(2,5-difluorophenyl)cyclopropyl]methyl}azepane-4-carboxylic acid]
 |  |  |  |  | < 0.0625 µg/mL | < 0.0625 µg/mL | 8 µg/mL (≈ 17.3 µM) | < 0.0625 µg/mL | < 0.0625 µg/mL | COc1ccc2ncc(F)c(CCCC3(C(=O)O)CCN(C4CC(c5ccccc5)C4)C3)c2c1 (centres unmarked) [Example 173, 3-[3-(3-fluoro-6-methoxyquinolin-4-yl)propyl]-1-(3-phenylcyclobutyl)pyrrolidine-3-carboxylic acid]
<0.0625 µg/mL | <0.0625 µg/mL | 0.250 µg/mL (≈ 0.491 µM) | <0.0625 µg/mL | <0.0625 µg/mL |  |  |  |  |  | COc1ccc2ncc(Cl)c(C(O)CC[C@@H]3CCN(C4CC(c5ccccc5)C4)C[C@@H]3C(=O)O)c2c1 (stereo partly drawn) [Example 211, (3R,4R)-4-[3-(3-chloro-6-methoxyquinolin-4-yl)-3-hydroxypropyl]-1-(3-phenylcyclobutyl)piperidine-3-carboxylic acid]
